Here are results for six compounds from ChEMBL document CHEMBL3286359, “Synthesis and SAR of substituted pyrazolo[1,5-a]quinazolines as dual mGlu(2)/mGlu(3) NAMs” (Bioorg Med Chem Lett, 2014).

Activity calls are given as the source filed them. The calls are words filed in the database; no cut-off is given here.

Data set [1] addresses Metabotropic glutamate receptor 3 (Rattus norvegicus) (UniProt P31422). In words: Positive allosteric modulatory activity at rat mGlu3 receptor transfected in HEK293 cells co-expressing mouse Galpha15 assessed as potentiation of glutamate-dependent calcium signaling at 3 uM by fluorescence plate reader analysis in presence of glutamate at EC20 concentration. The format is functional, cell-based.

For data set [2] the target is unchanged. In words: Inhibition of rat mGlu3 receptor transfected in HEK293 cells coexpressing mouse Galpha15 assessed as decrease in glutamate-induced calcium signaling at 1 uM by fluorescence plate reader analysis in presence of glutamate at EC87 concentration. The format is functional, cell-based.
Data set [3] deals with Metabotropic glutamate receptor 2 (Rattus norvegicus, UniProt P31421). The data set is described as follows: Inhibition of rat mGlu2 receptor transfected in HEK293 cells coexpressing mouse Galpha15 assessed as decrease in glutamate-induced calcium signaling by fluorescence plate reader analysis in presence of glutamate at EC76 concentration. The format is functional, cell-based.
Metabotropic glutamate receptor 2, sequence (P31421 whole entry): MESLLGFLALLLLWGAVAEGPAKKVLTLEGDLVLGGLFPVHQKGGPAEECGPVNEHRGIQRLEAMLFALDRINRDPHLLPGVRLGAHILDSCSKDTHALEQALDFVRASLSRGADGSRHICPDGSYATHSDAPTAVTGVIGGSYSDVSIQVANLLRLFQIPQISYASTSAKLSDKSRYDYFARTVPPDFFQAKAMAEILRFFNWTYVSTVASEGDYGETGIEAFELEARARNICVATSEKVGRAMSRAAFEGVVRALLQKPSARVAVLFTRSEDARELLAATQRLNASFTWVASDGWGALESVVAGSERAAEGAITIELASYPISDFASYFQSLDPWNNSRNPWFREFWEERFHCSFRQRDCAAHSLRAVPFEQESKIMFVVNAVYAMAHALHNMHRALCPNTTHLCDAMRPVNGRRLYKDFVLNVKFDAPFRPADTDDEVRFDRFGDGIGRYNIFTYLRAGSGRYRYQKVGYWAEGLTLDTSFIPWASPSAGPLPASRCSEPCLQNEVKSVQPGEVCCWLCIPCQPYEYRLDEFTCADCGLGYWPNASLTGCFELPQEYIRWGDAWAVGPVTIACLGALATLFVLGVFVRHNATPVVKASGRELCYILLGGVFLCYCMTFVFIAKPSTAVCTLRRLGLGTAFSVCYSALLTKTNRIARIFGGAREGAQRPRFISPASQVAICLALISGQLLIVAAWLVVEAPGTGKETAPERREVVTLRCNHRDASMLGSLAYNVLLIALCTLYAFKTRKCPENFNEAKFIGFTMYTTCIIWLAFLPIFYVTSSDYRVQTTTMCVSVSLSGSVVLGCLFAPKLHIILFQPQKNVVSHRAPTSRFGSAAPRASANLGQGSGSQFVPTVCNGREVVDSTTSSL

The target of data set [4] is Metabotropic glutamate receptor 2 (Rattus norvegicus) (UniProt P31421). In words: Positive allosteric modulatory activity at rat mGlu2 receptor transfected in HEK293 cells co-expressing mouse Galpha15 assessed as potentiation of glutamate-dependent calcium signaling at 3 uM by fluorescence plate reader analysis in presence of glutamate at EC20 concentration. It is filed as functional, cell-based.
Metabotropic glutamate receptor 2 (Rattus norvegicus), sequence (P31421 19-872 limits assumed): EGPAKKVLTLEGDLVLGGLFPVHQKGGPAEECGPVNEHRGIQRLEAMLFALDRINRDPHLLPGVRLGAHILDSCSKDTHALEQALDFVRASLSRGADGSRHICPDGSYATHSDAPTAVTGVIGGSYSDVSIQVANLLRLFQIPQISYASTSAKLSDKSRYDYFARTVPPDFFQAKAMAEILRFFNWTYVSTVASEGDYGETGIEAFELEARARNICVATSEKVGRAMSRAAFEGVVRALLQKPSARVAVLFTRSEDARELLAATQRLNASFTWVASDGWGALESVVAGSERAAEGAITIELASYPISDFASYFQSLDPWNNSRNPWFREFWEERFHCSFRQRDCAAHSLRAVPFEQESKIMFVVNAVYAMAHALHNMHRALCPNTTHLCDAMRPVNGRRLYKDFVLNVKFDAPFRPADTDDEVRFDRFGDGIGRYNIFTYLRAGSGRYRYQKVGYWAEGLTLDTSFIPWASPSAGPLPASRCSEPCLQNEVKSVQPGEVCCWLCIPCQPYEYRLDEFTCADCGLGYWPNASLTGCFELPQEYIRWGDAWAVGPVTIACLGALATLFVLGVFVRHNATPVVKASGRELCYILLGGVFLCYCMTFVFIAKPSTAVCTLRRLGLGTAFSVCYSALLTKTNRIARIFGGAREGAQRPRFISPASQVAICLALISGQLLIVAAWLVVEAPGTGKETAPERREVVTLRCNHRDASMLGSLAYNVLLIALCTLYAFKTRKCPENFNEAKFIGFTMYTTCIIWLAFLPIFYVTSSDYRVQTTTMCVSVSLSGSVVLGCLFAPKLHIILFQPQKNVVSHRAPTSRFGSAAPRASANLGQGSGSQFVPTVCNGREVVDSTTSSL

In data set [5] the target is Metabotropic glutamate receptor 3 (Rattus norvegicus, UniProt P31422). In words: Inhibition of rat mGlu3 receptor transfected in HEK293 cells coexpressing mouse Galpha15 assessed as decrease in glutamate-induced calcium signaling by fluorescence plate reader analysis in presence of glutamate at EC87 concentration. The format is functional, cell-based.
Metabotropic glutamate receptor 3, sequence (P31422 whole entry): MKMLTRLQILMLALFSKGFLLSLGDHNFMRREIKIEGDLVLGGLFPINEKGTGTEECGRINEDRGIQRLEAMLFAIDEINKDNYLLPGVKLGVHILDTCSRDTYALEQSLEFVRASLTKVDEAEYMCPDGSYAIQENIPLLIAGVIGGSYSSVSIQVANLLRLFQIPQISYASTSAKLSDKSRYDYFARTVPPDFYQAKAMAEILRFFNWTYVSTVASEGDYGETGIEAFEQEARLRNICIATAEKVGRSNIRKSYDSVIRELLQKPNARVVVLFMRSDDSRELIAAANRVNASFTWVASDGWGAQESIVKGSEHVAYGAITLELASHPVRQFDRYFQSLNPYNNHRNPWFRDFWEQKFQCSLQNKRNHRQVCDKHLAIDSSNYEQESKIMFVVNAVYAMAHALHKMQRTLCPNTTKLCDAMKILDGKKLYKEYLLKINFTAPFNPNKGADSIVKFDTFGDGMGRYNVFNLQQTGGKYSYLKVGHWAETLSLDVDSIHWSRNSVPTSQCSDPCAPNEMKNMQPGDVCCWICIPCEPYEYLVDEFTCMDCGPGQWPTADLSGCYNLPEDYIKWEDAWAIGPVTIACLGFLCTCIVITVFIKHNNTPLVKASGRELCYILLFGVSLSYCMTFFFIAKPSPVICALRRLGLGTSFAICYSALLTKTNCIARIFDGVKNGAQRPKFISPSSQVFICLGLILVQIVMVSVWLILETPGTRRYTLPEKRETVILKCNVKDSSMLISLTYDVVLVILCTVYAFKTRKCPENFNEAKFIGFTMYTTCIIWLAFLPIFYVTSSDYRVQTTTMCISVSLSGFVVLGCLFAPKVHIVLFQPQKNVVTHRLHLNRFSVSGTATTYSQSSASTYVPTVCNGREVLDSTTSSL
Data set [6] deals with Metabotropic glutamate receptor 2 (Rattus norvegicus) (UniProt P31421). The data set is described as follows: Inhibition of rat mGlu2 receptor transfected in HEK293 cells coexpressing mouse Galpha15 assessed as decrease in glutamate-induced calcium signaling at 1 uM by fluorescence plate reader analysis in presence of glutamate at EC76 concentration. The format is functional, cell-based.

Data set [7] has as its target Metabotropic glutamate receptor 3 (Rattus norvegicus) (UniProt P31422). In words: Inhibition of rat mGlu3 receptor transfected in HEK293 cells coexpressing mouse Galpha15 assessed as decrease in glutamate-induced calcium signaling at 3 uM by fluorescence plate reader analysis in presence of glutamate at EC87 concentration. It is filed as functional, cell-based.
In data set [8] the target is Metabotropic glutamate receptor 2 (Rattus norvegicus) (UniProt P31421). The data set is described as follows: Inhibition of rat mGlu2 receptor transfected in HEK293 cells coexpressing mouse Galpha15 assessed as decrease in glutamate-induced calcium signaling at 3 uM by fluorescence plate reader analysis in presence of glutamate at EC76 concentration. It is filed as functional, cell-based.

In data set [9] the target is Metabotropic glutamate receptor 6 (Homo sapiens) (UniProt O15303). In words: Activity at human mGlu6 receptor assessed as glutamate-induced GIRK response at 10 uM.
Data set [10] addresses Metabotropic glutamate receptor 2 (Rattus norvegicus) (UniProt P31421). The data set is described as follows: Inhibition of rat mGlu2 receptor assessed as decrease in glutamate-induced calcium signaling at 10 uM by fluorescence plate reader analysis. It is filed as functional.
Data set [11] has as its target Metabotropic glutamate receptor 3 (Rattus norvegicus) (UniProt P31422). The note with it: 10 uM.
Description: Inhibition of rat mGlu3 receptor assessed as decrease in glutamate-induced calcium signaling at 10 uM by fluorescence plate reader analysis
Data set [12] concerns the target Metabotropic glutamate receptor 5 (Rattus norvegicus) (UniProt P31424). The data set is described as follows: Activity at rat mGlu5 receptor assessed as glutamate-induced calcium signaling at 10 uM by fluorescence plate reader analysis. It is filed as functional.
Data set [13] deals with Metabotropic glutamate receptor 4 (Rattus norvegicus) (UniProt P31423). The data set is described as follows: Activity at rat mGlu4 receptor assessed as glutamate-induced GIRK response at 10 uM.
Metabotropic glutamate receptor 4 (Rattus norvegicus), sequence (P31423 whole entry): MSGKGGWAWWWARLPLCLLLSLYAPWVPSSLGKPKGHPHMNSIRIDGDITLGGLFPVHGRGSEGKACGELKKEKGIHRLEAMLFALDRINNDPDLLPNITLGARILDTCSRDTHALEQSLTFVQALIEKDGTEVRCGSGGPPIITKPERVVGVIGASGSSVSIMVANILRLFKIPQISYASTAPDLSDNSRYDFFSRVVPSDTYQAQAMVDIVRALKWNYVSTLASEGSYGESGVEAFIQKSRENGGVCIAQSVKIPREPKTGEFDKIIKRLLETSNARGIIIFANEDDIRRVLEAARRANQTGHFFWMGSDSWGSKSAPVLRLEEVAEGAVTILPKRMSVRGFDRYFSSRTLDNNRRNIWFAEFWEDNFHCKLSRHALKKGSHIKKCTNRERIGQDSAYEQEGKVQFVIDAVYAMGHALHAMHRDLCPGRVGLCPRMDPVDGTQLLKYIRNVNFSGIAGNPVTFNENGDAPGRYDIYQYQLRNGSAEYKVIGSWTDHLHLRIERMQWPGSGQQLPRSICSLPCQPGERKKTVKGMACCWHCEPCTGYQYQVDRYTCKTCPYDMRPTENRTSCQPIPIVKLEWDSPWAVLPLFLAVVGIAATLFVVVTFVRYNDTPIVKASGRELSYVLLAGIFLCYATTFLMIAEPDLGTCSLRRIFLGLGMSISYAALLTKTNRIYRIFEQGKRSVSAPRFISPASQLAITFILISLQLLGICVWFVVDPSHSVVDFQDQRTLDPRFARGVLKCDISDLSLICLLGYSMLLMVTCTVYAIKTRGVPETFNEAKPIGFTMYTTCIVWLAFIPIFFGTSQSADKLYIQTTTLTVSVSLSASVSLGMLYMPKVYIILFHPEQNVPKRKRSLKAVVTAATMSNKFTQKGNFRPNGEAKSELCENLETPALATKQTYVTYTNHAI
Data set [14] concerns the target Metabotropic glutamate receptor 7 (Rattus norvegicus) (UniProt P35400). In words: Activity at rat mGlu7 receptor assessed as glutamate-induced GIRK response at 10 uM.
For data set [15], the system named is Plasma. The data set is described as follows: Fraction unbound in rat plasma. It is filed as ADME, cell-free.
Data set [16] has as its system Plasma. The data set is described as follows: Fraction unbound in human plasma. The format is ADME, cell-free.
The target of data set [17] is Metabotropic glutamate receptor 8 (Rattus norvegicus) (UniProt P70579). In words: Activity at rat mGlu8 receptor assessed as glutamate-induced GIRK response at 10 uM.
For data set [18], the target named is Metabotropic glutamate receptor 2 (Rattus norvegicus) (UniProt P31421). In words: Negative allosteric modulatory activity at rat mGlu2 receptor transfected in HEK293 cells coexpressing mouse Galpha15 assessed as decrease in glutamate-induced calcium signaling by fluorescence plate reader analysis in presence of glutamate at EC76 concentration. The format is functional, cell-based.

Metabotropic glutamate receptor 3 (Rattus norvegicus), sequence (P31422 23-879 limits assumed): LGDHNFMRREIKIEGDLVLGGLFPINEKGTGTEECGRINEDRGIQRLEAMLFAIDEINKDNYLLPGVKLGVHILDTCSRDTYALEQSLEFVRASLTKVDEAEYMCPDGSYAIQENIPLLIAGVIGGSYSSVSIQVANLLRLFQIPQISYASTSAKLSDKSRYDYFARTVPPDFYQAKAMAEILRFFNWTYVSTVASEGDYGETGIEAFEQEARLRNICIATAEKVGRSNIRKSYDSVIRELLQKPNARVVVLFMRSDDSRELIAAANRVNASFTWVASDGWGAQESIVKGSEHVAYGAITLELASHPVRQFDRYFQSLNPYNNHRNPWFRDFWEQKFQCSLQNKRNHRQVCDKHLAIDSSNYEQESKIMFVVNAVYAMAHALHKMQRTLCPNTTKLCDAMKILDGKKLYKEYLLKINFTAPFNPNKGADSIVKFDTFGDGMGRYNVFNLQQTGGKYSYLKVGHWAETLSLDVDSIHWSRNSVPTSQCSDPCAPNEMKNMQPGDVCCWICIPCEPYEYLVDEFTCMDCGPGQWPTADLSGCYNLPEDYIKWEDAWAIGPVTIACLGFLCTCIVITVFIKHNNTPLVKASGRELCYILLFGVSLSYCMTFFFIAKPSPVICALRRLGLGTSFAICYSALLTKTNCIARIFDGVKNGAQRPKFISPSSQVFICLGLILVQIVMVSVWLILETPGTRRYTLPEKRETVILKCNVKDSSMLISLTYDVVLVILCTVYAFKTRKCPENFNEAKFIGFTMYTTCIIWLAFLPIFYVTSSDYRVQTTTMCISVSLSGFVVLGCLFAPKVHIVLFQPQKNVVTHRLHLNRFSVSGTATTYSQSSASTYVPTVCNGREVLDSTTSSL

For orientation: inhibition means how much of the control response was suppressed. The term IC50 denotes the concentration at which inhibition is half-maximal. With `Cn1c(=O)c2ccc(-c3cccnc3)cc2n2nc(-c3ccc(Cl)cc3)cc12`, the result in data set [1] and in data set [4] was inactive. The inhibition in data set [2] and in data set [6] was 60% each time. Besides, the results for the half-inhibitory concentration (IC50) in data set [3] and in data set [5] were 1110 nM and 645 nM, respectively.

Turning to `Cn1c(=O)c2ccc(-c3ccccc3)cc2n2nc(-c3ccc(Cl)cc3)cc12`, the result in [1] and in data set [4] was inactive. The inhibition in [7] worked out at 31%; in data set [2], 60%; in [8], 4%; in data set [6] it was 60%.

For `Cc1ccc2c(=O)n(C)c3cc(-c4ccc(Cl)cc4)nn3c2c1`, the outcome in [1] and in data set [4] was inactive. The inhibition in data set [7] is 33%; in data set [2], 60%; in data set [8], 11%; in data set [6], 60%.

Take `COc1ccc(-c2ccc3c(=O)n(C)c4cc(-c5ccc(Cl)cc5)nn4c3c2)cc1`: the result in data set [1] and in data set [4] was inactive. Besides, the inhibition in [7] was 21%; in data set [2] it was 60%; in data set [8], 6%; in [6], 60%.

As for `Cn1c(=O)c2ccc(-c3cccc(S(N)(=O)=O)c3)cc2n2nc(-c3ccc(Cl)cc3)cc12`, the result in [1] and in [4] was inactive. Besides, the inhibition in data set [2] and in [6] was 60% in each case. Also, the IC50 in data set [3] worked out at 847 nM; in data set [5], 1250 nM.

As for `Cn1c(=O)c2ccc(-c3cncnc3)cc2n2nc(-c3ccccc3)cc12`, the result in [9], in data set [12], in data set [13], in data set [14] and in [17] was inactive. For the same compound, the inhibition entry in data set [10] and in data set [11] was “Active” throughout. The Fu is on record as 0.003 in the data set with Plasma [15] and 0.008 in the data set with Plasma [16]. Further, the IC50 in data set [3] came out at 245 nM; in [5] it was 78 nM. Besides, the Activity entry in [18] is “Dose-dependent effect”.
